For one compound, Kd results are on record in publication PMC8830175, “Bex1 is essential for ciliogenesis and harbours biomolecular condensate-forming capacity” (BMC Biology, 2022).

For this test, the target named is T1, Bex1 (recombinant Bex1 protein) (Mus musculus, UniProt Q9R224).
T1 construct: N-terminal hexahistidine tag (pETDuet-1), expressed in E. coli Rosetta-gami 2(DE3)pLysS, non-denaturing Ni-NTA purification, 15N-labelled; tag removal not mentioned
T1 sequence (Q9R224 1-128): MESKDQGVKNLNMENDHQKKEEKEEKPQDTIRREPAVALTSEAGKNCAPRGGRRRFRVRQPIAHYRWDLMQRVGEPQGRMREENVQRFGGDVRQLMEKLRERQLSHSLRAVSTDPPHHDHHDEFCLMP
The test can be described thus: 2D 1H-15N HSQC NMR titration (chemical shift perturbation). The format is binding. An excerpt:
2D 1H-15N HSQC NMR titration (chemical shift perturbation) on Bex1 (recombinant Bex1 protein) | The peak shift of Bex1 was GTP concentration-dependent with the dissociation constant (Kd) equal to […]

The structures appear in SMILES notation.

The term Kd denotes a measure of binding affinity in units of concentration. With `Nc1nc2c(ncn2[C@@H]2O[C@H](COP(=O)(O)OP(=O)(O)OP(=O)(O)O)[C@@H](O)[C@H]2O)c(=O)[nH]1` [GTP], the Kd came to 244 ± 98 µM.
